pIC50: −log10 of the molar value.
Legend:
PBMC = experiment: Time Dependent PBMC IC50 assay; format: cell-based
Description: Compounds described by embodiments of the present invention were assayed using a time dependent PMBC assay.

full-length human BTK = full-length human BTK (Homo sapiens (Human), UniProt Q06187); experiment: BTK IC50 enzyme assay (microfluidic off-chip mobility shift kinase assay); format: biochemical; details: incubated for 90 min. at 27 C; read-out: Time Dependent BTK Enzyme Assay IC50
Summary of the method: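 Read-out separates phosphorylated peptide product from substrate by charge/mass in a mobility shift format with full-length human BTK.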

BTK = BTK (Homo sapiens (Human), UniProt Q06187); experiment: Time Dependent Human Whole Blood IC50 assay; format: cell-based; details: human whole blood; read-out: Time Dependent Human Whole Blood BTK Enzyme Assay IC50
Description: Compounds described by embodiments of the present invention were assayed using a human whole blood assay. The data from the same is recorded in Table 2 within the column labeled: “Time Dependent Human Whole Blood BTK Enzyme Assay IC50”.

NZB/W F1 mice = experiment: Interferon-alpha accelerated systemic lupus erythematosus (SLE) mouse model; format: in vivo; details: oral, daily from day 14, 0.1, 0.3, 1, or 3 mg/kg; NZB/W F1 mice with ADV-IFN-α
Description: 1-(4-(((6-amino-5-(4-phenoxyphenyl)pyrimidin-4-yl)amino)methyl)piperidin-1-yl)prop-2-en-1-one, designated as “CPD. B”, was evaluated in an interferon-alpha accelerated SLE mouse model. NZB/W F1 mice received i.v. injection at day 0 and day 1 of 10^8 infectious units of adenovirus (ADV-IFN-α) to deliver a transient overexpression on interferon alpha. Oral dosing of the different group treatments was initiated on day 14 and continued daily at 24 hour intervals until the end of the study. Treatment groups consisted of 20% Kleptose HPB in Na-citrate buffer (vehicle) or 0.1, 0.3, 1, or 3 mg/kg of Cpd. […] As shown in Panel 1B Cpd. […] FIG. 2 presents data from another interferon-alpha accelerated SLE experiment in mice. NZB/W F1 mice received i.v. injections at day 0 and day 1 of 10^8 infectious units of adenovirus (ADV-IFN-α) to deliver a transient overexpression on interferon alpha. Oral dosing of the different group treatments (n=10) was initiated on day 14 and continued daily at 24 hour intervals until the end of the study. Treatment groups consisted of 20% Kleptose HPB in Na-citrate buffer (vehicle), 0.1, 0.3, 1, or 3 mg/kg of Cpd. B or Cell Cept®. […] Statistical analysis was performed using Two way ANOVA with Bonferroni post test with all groups compared to vehicle treated group (*=p<0.05, **=p<0.01, ***=p<0.001).

Chain of BTK (Q06187 whole entry): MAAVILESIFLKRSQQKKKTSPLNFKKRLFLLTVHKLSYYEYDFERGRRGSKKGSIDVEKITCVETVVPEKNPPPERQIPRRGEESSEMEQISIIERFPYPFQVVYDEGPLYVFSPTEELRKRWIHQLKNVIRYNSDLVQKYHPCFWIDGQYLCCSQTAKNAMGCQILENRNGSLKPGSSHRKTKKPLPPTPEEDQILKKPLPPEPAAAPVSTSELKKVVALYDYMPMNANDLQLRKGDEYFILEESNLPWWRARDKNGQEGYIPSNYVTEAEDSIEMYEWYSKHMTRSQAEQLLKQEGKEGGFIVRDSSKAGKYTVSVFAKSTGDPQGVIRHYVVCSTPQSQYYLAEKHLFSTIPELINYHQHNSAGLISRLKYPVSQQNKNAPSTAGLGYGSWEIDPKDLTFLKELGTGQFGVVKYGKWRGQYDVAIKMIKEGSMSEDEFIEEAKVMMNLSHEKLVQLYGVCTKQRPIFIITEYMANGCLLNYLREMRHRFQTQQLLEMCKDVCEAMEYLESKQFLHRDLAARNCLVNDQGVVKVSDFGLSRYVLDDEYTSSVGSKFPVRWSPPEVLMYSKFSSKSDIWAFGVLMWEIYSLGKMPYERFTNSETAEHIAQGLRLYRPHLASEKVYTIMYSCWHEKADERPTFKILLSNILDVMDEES
Chain of full-length human BTK (Q06187 whole entry): as above

pIC50 (full-length human BTK) | pIC50 (BTK) | SMILES | pIC50 (PBMC) | disease activity (NZB/W F1 mice)
> 7.00 | > 6.00 | C=CC(=O)Nc1cccc(Oc2ncnc(N)c2-c2cnn(Cc3ccccc3)c2)c1 [A172, N-(3-((6-amino-5-(1-benzyl-1H-pyrazol-4-yl)pyrimidin-4-yl)oxy)phenyl)acrylamide] | > 6.00 | 
> 7.00 | > 6.00 | C=CC(=O)Nc1cccc(Nc2ncnc(N)c2-c2ccc(Oc3ccccc3)cc2)c1 [A3, N-(3-((6-amino-5-(4-phenoxyphenyl)pyrimidin-4-yl)amino)phenyl)acrylamide] | > 6.00 | 
> 7.00 | > 6.00 | C=CC(=O)Nc1cc(Oc2ncnc(N)c2-c2ccc(Oc3ccccc3)cc2)c(F)cc1F [A251, N-(5-((6-amino-5-(4-phenoxyphenyl)pyrimidin-4-yl)oxy)-2,4-difluorophenyl)acrylamide] | > 6.00 | 

More lines, now with the values behind:

SMILES | pIC50 (full-length human BTK) | pIC50 (BTK) | pIC50 (PBMC) | disease activity (NZB/W F1 mice)
C=CC(=O)Nc1ccc(F)c(Oc2ncnc(N)c2-c2ccc(Oc3ccccc3)cc2)c1 [A246, N-(3-((6-amino-5-(4-phenoxyphenyl)pyrimidin-4-yl)oxy)-4-fluorophenyl)acrylamide] | > 7.00 | > 6.00 | > 6.00 | 
C=CC(=O)N1CCC(CNc2ncnc(N)c2-c2ccc(Oc3ccccc3)cc2)CC1 [Cpd. B, 1-(4-(((6-amino-5-(4-phenoxyphenyl)pyrimidin-4-yl)amino)methyl)piperidin-1-yl)prop-2-en-1-one] |  |  |  | reduces the disease activity in a dose-dependent manner

Source: patent publication US9580449B2, “Compositions and methods for the production of pyrimidine and pyridine compounds with BTK inhibitory activity” (Merck Patent GmbH, priority 2011, dated 2017)
